# Data from ChEMBL document CHEMBL3885881, “DrugMatrix”.
# Species on record: Rattus norvegicus
# Assay: DrugMatrix - Regimen: Daily Repeat
# Format: toxicity, organism-based, Sprague-Dawley
# Parameters: regimen Daily Repeat, gender Male, age 6-8 weeks
# Details: in vivo, po, route oral GAVAGE, vehicle 100 % WATER; for ABSOLUTE BASOPHIL / ABSOLUTE EOSINOPHIL / ABSOLUTE LYMPHOCYTE / ABSOLUTE MONOCYTE / ABSOLUTE SEGMENTED NEUTROPHIL / BASOPHIL / EOSINOPHIL / ERYTHROCYTE COUNT / HEMATOCRIT / HEMOGLOBIN / LEUKOCYTE COUNT / LYMPHOCYTE / MEAN CORPUSCULAR HEMOGLOBIN / MEAN CORPUSCULAR HEMOGLOBIN CONCENTRATION / MEAN CORPUSCULAR VOLUME / MONOCYTE / NEUTROPHIL / NUCLEATED RED BLOOD CELLS / PLATELET COUNT: tissue Blood; for ALANINE AMINOTRANSFERASE / ALBUMIN / ALKALINE PHOSPHATASE / ASPARTATE AMINOTRANSFERASE / BLOOD UREA NITROGEN / CARBON DIOXIDE / CHLORIDE / CHOLESTEROL / CREATINE PHOSPHOKINASE / CREATININE / GLUCOSE / LACTATE DEHYDROGENASE / LIPASE / PHOSPHORUS / POTASSIUM / SODIUM / TOTAL BILIRUBIN / TOTAL PROTEIN / URIC ACID: tissue Plasma
# [1] = 0 mg/kg, 72 h, dose level Control, time 3 day
# [2] = 0 mg/kg, 120 h, dose level Control, time 5 day
# [3] = 8 mg/kg, 72 h, dose level Low, time 3 day
smiles,measurement,setting,value
CCN(C(C)=O)c1cccc(-c2ccnc3c(C#N)cnn23)c1 [ZALEPLON],ABSOLUTE BASOPHIL,[1],0 CELLS/uL
same,ABSOLUTE EOSINOPHIL,[1],58.83 CELLS/uL
same,ABSOLUTE LYMPHOCYTE,[1],11823.5 CELLS/uL
same,ABSOLUTE MONOCYTE,[1],169 CELLS/uL
same,ABSOLUTE SEGMENTED NEUTROPHIL,[1],815.33 CELLS/uL
same,BASOPHIL,[1],0%
same,EOSINOPHIL,[1],0.5%
same,ERYTHROCYTE COUNT,[1],5.52 x10E6/uL
same,HEMATOCRIT,[1],35.77%
same,HEMOGLOBIN,[1],14.28 G/DL
same,LEUKOCYTE COUNT,[1],12.87 x10E3/uL
same,LYMPHOCYTE,[1],91.67%
same,MEAN CORPUSCULAR HEMOGLOBIN,[1],25.92 pg
same,MEAN CORPUSCULAR HEMOGLOBIN CONCENTRATION,[1],39.95 G/DL
same,MEAN CORPUSCULAR VOLUME,[1],64.85 fL
same,MONOCYTE,[1],1.33%
same,NEUTROPHIL,[1],6.5%
same,NUCLEATED RED BLOOD CELLS,[1],0 /100WBC
same,PLATELET COUNT,[1],1246.17 x10E3/uL
same,ALANINE AMINOTRANSFERASE,[1],66 u/L
same,ALBUMIN,[1],4.25 G/DL
same,ALKALINE PHOSPHATASE,[1],416 u/L
same,ASPARTATE AMINOTRANSFERASE,[1],106.17 u/L
same,BLOOD UREA NITROGEN,[1],12.67 mg/dL
same,CARBON DIOXIDE,[1],31.83 mmol/L
same,CHLORIDE,[1],102.5 MEQ/L
same,CHOLESTEROL,[1],69 mg/dL
same,CREATINE PHOSPHOKINASE,[1],601.83 u/L
same,CREATININE,[1],0.18 mg/dL
same,GLUCOSE,[1],154.5 mg/dL
same,LACTATE DEHYDROGENASE,[1],301.83 u/L
same,LIPASE,[1],11.17 u/L
same,PHOSPHORUS,[1],12.08 mg/dL
same,POTASSIUM,[1],6.12 MEQ/L
same,SODIUM,[1],145.2 MEQ/L
same,TOTAL BILIRUBIN,[1],0.17 mg/dL
same,TOTAL PROTEIN,[1],6.1 G/DL
same,URIC ACID,[1],1.57 mg/dL
same,ABSOLUTE BASOPHIL,[2],0 CELLS/uL
same,ABSOLUTE EOSINOPHIL,[2],19.33 CELLS/uL
same,ABSOLUTE LYMPHOCYTE,[2],12577.83 CELLS/uL
same,ABSOLUTE MONOCYTE,[2],106.33 CELLS/uL
same,ABSOLUTE SEGMENTED NEUTROPHIL,[2],896.5 CELLS/uL
same,BASOPHIL,[2],0%
same,EOSINOPHIL,[2],0.17%
same,ERYTHROCYTE COUNT,[2],5.84 x10E6/uL
same,HEMATOCRIT,[2],36.88%
same,HEMOGLOBIN,[2],14.48 G/DL
same,LEUKOCYTE COUNT,[2],13.6 x10E3/uL
same,LYMPHOCYTE,[2],92.17%
same,MEAN CORPUSCULAR HEMOGLOBIN,[2],24.85 pg
same,MEAN CORPUSCULAR HEMOGLOBIN CONCENTRATION,[2],39.3 G/DL
same,MEAN CORPUSCULAR VOLUME,[2],63.23 fL
same,MONOCYTE,[2],0.83%
same,NEUTROPHIL,[2],6.83%
same,NUCLEATED RED BLOOD CELLS,[2],0 /100WBC
same,PLATELET COUNT,[2],1223.5 x10E3/uL
same,ALANINE AMINOTRANSFERASE,[2],55.33 u/L
same,ALBUMIN,[2],4.08 G/DL
same,ALKALINE PHOSPHATASE,[2],355.5 u/L
same,ASPARTATE AMINOTRANSFERASE,[2],87.67 u/L
same,BLOOD UREA NITROGEN,[2],15.33 mg/dL
same,CARBON DIOXIDE,[2],33.83 mmol/L
same,CHLORIDE,[2],99.67 MEQ/L
same,CHOLESTEROL,[2],72.17 mg/dL
same,CREATINE PHOSPHOKINASE,[2],268.33 u/L
same,CREATININE,[2],0.15 mg/dL
same,GLUCOSE,[2],152.5 mg/dL
same,LACTATE DEHYDROGENASE,[2],212.67 u/L
same,LIPASE,[2],10.83 u/L
same,PHOSPHORUS,[2],11.65 mg/dL
same,POTASSIUM,[2],6.73 MEQ/L
same,SODIUM,[2],142.43 MEQ/L
same,TOTAL BILIRUBIN,[2],0.23 mg/dL
same,TOTAL PROTEIN,[2],6.07 G/DL
same,URIC ACID,[2],1.7 mg/dL
same,ABSOLUTE BASOPHIL,[3],0 CELLS/uL
same,ABSOLUTE EOSINOPHIL,[3],0 CELLS/uL
same,ABSOLUTE LYMPHOCYTE,[3],15455.33 CELLS/uL
same,ABSOLUTE MONOCYTE,[3],295 CELLS/uL
same,ABSOLUTE SEGMENTED NEUTROPHIL,[3],1116.33 CELLS/uL
same,BASOPHIL,[3],0%
same,EOSINOPHIL,[3],0%
same,ERYTHROCYTE COUNT,[3],5.86 x10E6/uL
same,HEMATOCRIT,[3],37.3%
same,HEMOGLOBIN,[3],14.83 G/DL
same,LEUKOCYTE COUNT,[3],16.87 x10E3/uL
same,LYMPHOCYTE,[3],91.67%
same,MEAN CORPUSCULAR HEMOGLOBIN,[3],25.33 pg
same,MEAN CORPUSCULAR HEMOGLOBIN CONCENTRATION,[3],39.77 G/DL
same,MEAN CORPUSCULAR VOLUME,[3],63.67 fL
same,MONOCYTE,[3],1.67%
same,NEUTROPHIL,[3],6.67%
same,NUCLEATED RED BLOOD CELLS,[3],0 /100WBC
same,PLATELET COUNT,[3],1367.67 x10E3/uL
same,ALANINE AMINOTRANSFERASE,[3],54.67 u/L
same,ALBUMIN,[3],4.17 G/DL
same,ALKALINE PHOSPHATASE,[3],303 u/L
same,ASPARTATE AMINOTRANSFERASE,[3],88.33 u/L
same,BLOOD UREA NITROGEN,[3],12 mg/dL
same,CARBON DIOXIDE,[3],32.67 mmol/L
same,CHLORIDE,[3],101.67 MEQ/L
same,CHOLESTEROL,[3],70.67 mg/dL
same,CREATINE PHOSPHOKINASE,[3],534 u/L
same,CREATININE,[3],0.2 mg/dL
same,GLUCOSE,[3],151 mg/dL
same,LACTATE DEHYDROGENASE,[3],218 u/L
same,LIPASE,[3],13.67 u/L
same,PHOSPHORUS,[3],12.87 mg/dL
same,POTASSIUM,[3],6.77 MEQ/L
same,SODIUM,[3],145.17 MEQ/L
same,TOTAL BILIRUBIN,[3],0.17 mg/dL
same,TOTAL PROTEIN,[3],5.9 G/DL
same,URIC ACID,[3],1.7 mg/dL
